Reference: PMC9090415, “Discovery of small molecule inhibitors of Plasmodium falciparum apicoplast DNA polymerase” (Journal of Enzyme Inhibition and Medicinal Chemistry, 2022)

Target: P. falciparum apicoplast DNA polymerase (Pf-apPOL) (Plasmodium falciparum, UniProt Q8ILY1)
Test: Fluorescence-based high-throughput DNA polymerase assay (molecular beacon), primary screen and dose-response
Format: biochemical
Procedure, shortened: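 Single-point screening used 10 µM compound with 20 nM polymerase, 20 nM hairpin substrate and 6 µM dNTPs for 90 min at 25 °C. Confirmatory titrations (2.5–80 µM) followed fluorescence at three times, and IC50 was derived from a fit including a cooperativity term n.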

[1] = primary screen value of the 186 hits; unit not given; 90 min, 10 µM

Chain of P. falciparum apicoplast DNA polymerase (Pf-apPOL) (Q8ILY1 entry or part of it): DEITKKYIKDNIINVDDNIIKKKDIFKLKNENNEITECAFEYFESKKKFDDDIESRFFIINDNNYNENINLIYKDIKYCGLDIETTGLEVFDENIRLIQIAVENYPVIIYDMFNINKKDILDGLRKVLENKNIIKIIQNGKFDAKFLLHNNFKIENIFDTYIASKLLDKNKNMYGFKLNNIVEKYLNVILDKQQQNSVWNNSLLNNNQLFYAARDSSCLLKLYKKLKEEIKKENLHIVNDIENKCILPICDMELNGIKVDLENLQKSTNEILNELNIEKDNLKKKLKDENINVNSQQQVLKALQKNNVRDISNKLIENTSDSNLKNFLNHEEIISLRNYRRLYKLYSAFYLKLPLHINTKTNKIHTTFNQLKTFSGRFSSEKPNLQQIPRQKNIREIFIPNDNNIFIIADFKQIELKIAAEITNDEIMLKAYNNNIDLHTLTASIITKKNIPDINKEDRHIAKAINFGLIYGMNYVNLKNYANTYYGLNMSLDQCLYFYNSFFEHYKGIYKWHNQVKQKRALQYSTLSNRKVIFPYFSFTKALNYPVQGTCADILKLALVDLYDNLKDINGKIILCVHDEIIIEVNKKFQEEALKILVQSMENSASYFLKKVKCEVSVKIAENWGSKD

Nc1ncnc(NC2CCCCC2)c1[N+](=O)[O-] [KU0193018]
% inhibition Apo pol 10' (DRC-1; concentration 2.5; 10'): -4.033% | % inhibition Apol 90' (DRC-1; concentration 2.5; 90'): 1.71% | % inhibition apPOL 180' (DRC-1; concentration 2.5; 180'): 7.961% | % inhibition Apo pol 10' (DRC-1; concentration 5; 10'): -4.7638% | % inhibition Apol 90' (DRC-1; concentration 5; 90'): 3.18% | % inhibition apPOL 180' (DRC-1; concentration 5; 180'): 11.4393% | % inhibition Apo pol 10' (DRC-1; concentration 10; 10'): 7.571% | % inhibition Apol 90' (DRC-1; concentration 10; 90'): 18.3925% | % inhibition apPOL 180' (DRC-1; concentration 10; 180'): 32.1574% | % inhibition Apo pol 10' (DRC-1; concentration 20; 10'): 20.9545% | % inhibition Apol 90' (DRC-1; concentration 20; 90'): 38.4286% | % inhibition apPOL 180' (DRC-1; concentration 20; 180'): 56.6751% | % inhibition Apo pol 10' (DRC-1; concentration 40; 10'): 53.9116% | % inhibition Apol 90' (DRC-1; concentration 40; 90'): 70.3163% | % inhibition apPOL 180' (DRC-1; concentration 40; 180'): 83.6838% | % inhibition Apo pol 10' (DRC-1; concentration 80 (unit not given); 10'): 70.2616% | % inhibition Apol 90' (DRC-1; concentration 80; 90'): 82.4548% | % inhibition apPOL 180' (DRC-1; concentration 80; 180'): 91.4179% | % inhibition Apo pol 5' (DRC-2; concentration 2.5; 5'): -2.47% | % inhibition Apol 40' (DRC-2; concentration 2.5; 40'): -1.57% | % inhibition ApPOL 90' (DRC-2; concentration 2.5; 90'): -2.42% | % inhibition apPOL 180' (DRC-2; concentration 2.5; 180'): -6.58% | % inhibition Apo pol 5' (DRC-2; concentration 5; 5'): 4% | % inhibition Apol 40' (DRC-2; concentration 5; 40'): 3.32% | % inhibition ApPOL 90' (DRC-2; concentration 5; 90'): 2.51% | % inhibition apPOL 180' (DRC-2; concentration 5; 180'): -3.38% | % inhibition Apo pol 5' (DRC-2; concentration 10; 5'): 20% | % inhibition Apol 40' (DRC-2; concentration 10; 40'): 19% | % inhibition ApPOL 90' (DRC-2; concentration 10; 90'): 15% | % inhibition apPOL 180' (DRC-2; concentration 10; 180'): 6% | % inhibition Apo pol 5' (DRC-2; concentration 20; 5'): 37% | % inhibition Apol 40' (DRC-2; concentration 20; 40'): 42% | % inhibition ApPOL 90' (DRC-2; concentration 20; 90'): 38% | % inhibition apPOL 180' (DRC-2; concentration 20; 180'): 26% | % inhibition Apo pol 5' (DRC-2; concentration 40; 5'): 50% | % inhibition Apol 40' (DRC-2; concentration 40; 40'): 64% | % inhibition ApPOL 90' (DRC-2; concentration 40; 90'): 63% | % inhibition apPOL 180' (DRC-2; concentration 40; 180'): 55% | % inhibition Apo pol 5' (DRC-2; concentration 80; 5'): 52% | % inhibition Apol 40' (DRC-2; concentration 80; 40'): 71% | % inhibition ApPOL 90' (DRC-2; concentration 80; 90'): 72% | % inhibition apPOL 180' (DRC-2; concentration 80; 180'): 69% | DNA Pol [1]: 25 | DNA Pol (primary screen value; head prints only 'DNA Pol'; 90 min, 10 µM): 25

O=C(O)c1ccc(-c2nc3cc(-c4ccc5nc(-c6ccc(C(=O)O)cc6)[nH]c5c4)ccc3[nH]2)cc1 [Molecule 1, OC(=O)c1ccc(cc1)c1nc2c([nH]1)cc(cc2)c1ccc2c(c1)nc([nH]2)c1ccc(cc1)C(=O)O]
% inhibition Apo pol 10' (DRC-1; 10'; concentration 2.5): 4.605% | % inhibition Apo pol 10' (DRC-1; 10'; concentration 5): 47.5072% | % inhibition Apo pol 10' (DRC-1; 10'; concentration 10): 71.1755% | % inhibition Apo pol 10' (DRC-1; 10'; concentration 20): 72.8856% | % inhibition Apo pol 10' (DRC-1; 10'; concentration 40): 63.5867% | % inhibition Apo pol 10' (DRC-1; 10'; concentration 80): 67.7005% | % inhibition Apol 90' (DRC-1; 90'; concentration 2.5): 3.724% | % inhibition Apol 90' (DRC-1; 90'; concentration 5): 40.2973% | % inhibition Apol 90' (DRC-1; 90'; concentration 10): 67.3465% | % inhibition Apol 90' (DRC-1; 90'; concentration 20): 73.5196% | % inhibition Apol 90' (DRC-1; 90'; concentration 40): 66.9827% | % inhibition Apol 90' (DRC-1; 90'; concentration 80): 77.5146% | % inhibition apPOL 180' (DRC-1; 180'; concentration 2.5): 2.544% | % inhibition apPOL 180' (DRC-1; 180'; concentration 5): 30.2265% | % inhibition apPOL 180' (DRC-1; 180'; concentration 10): 61.3297% | % inhibition apPOL 180' (DRC-1; 180'; concentration 20): 73.7422% | % inhibition apPOL 180' (DRC-1; 180'; concentration 40): 70.4852% | % inhibition apPOL 180' (DRC-1; 180'; concentration 80): 81.7521% | % inhibition Apo pol 5' (DRC-2, 5', concentration 2.5 (unit not given)): 30% | % inhibition Apo pol 5' (DRC-2, 5', concentration 20 (unit not given)): 37% | % inhibition Apo pol 5' (DRC-2, 5', concentration 40 (unit not given)): 37% | % inhibition Apol 40' (DRC-2, 40', concentration 2.5 (unit not given)): 30% | % inhibition Apol 40' (DRC-2, 40', concentration 10 (unit not given)): 32% | % inhibition Apol 40' (DRC-2, 40', concentration 20 (unit not given)): 41% | % inhibition Apol 40' (DRC-2, 40', concentration 80 (unit not given)): 32% | % inhibition ApPOL 90' (DRC-2, 90', concentration 80 (unit not given)): 41% | % inhibition apPOL 180' (DRC-2, 180', concentration 20 (unit not given)): 37% | % inhibition Apo pol 5' (DRC-2; 5'; concentration 2.5): 30% | % inhibition Apo pol 5' (DRC-2; 5'; concentration 5): 7% | % inhibition Apo pol 5' (DRC-2; 5'; concentration 10): 33% | % inhibition Apo pol 5' (DRC-2; 5'; concentration 20): 37% | % inhibition Apo pol 5' (DRC-2; 5'; concentration 40): 37% | % inhibition Apo pol 5' (DRC-2; 5'; concentration 80): 22% | % inhibition Apol 40' (DRC-2; 40'; concentration 2.5): 30% | % inhibition Apol 40' (DRC-2; 40'; concentration 5): 4% | % inhibition Apol 40' (DRC-2; 40'; concentration 10): 32% | % inhibition Apol 40' (DRC-2; 40'; concentration 20): 41% | % inhibition Apol 40' (DRC-2; 40'; concentration 40): 48% | % inhibition Apol 40' (DRC-2; 40'; concentration 80): 32% | % inhibition ApPOL 90' (DRC-2; 90'; concentration 2.5): 25% | % inhibition ApPOL 90' (DRC-2; 90'; concentration 5): 1.89% | % inhibition ApPOL 90' (DRC-2; 90'; concentration 10): 28% | % inhibition ApPOL 90' (DRC-2; 90'; concentration 20): 40% | % inhibition ApPOL 90' (DRC-2; 90'; concentration 40): 53% | % inhibition ApPOL 90' (DRC-2; 90'; concentration 80): 41% | % inhibition apPOL 180' (DRC-2; 180'; concentration 2.5): 14% | % inhibition apPOL 180' (DRC-2; 180'; concentration 5): -1.88% | % inhibition apPOL 180' (DRC-2; 180'; concentration 10): 20% | % inhibition apPOL 180' (DRC-2; 180'; concentration 20): 37% | % inhibition apPOL 180' (DRC-2; 180'; concentration 40): 56% | % inhibition apPOL 180' (DRC-2; 180'; concentration 80): 49% | DNA Pol [1]: 68 | DNA Pol (primary screen value, head "DNA Pol", unit not given; 90 min, 10 µM): 68
